Measured values: a compilation of properties of binary mixtures (doi:10.1021/acs.jced.9b01032)

Assay: xn = mol fraction of the nth substance listed
Conditions: 93.2 kPa

NC=O + CCCC[n+]1ccn(C)c1.F[P-](F)(F)(F)(F)F
x2 = 0
Conditions | speed of sound [m/s]
288.15 K | 1619
298.15 K | 1598
303.15 K | 1588

CCCC[n+]1ccn(C)c1.F[P-](F)(F)(F)(F)F + NC=O
speed of sound [m/s]
Conditions | 288.15 K | 293.15 K | 298.15 K | 303.15 K
x1 = 0.0502 | 1587 | 1576 | 1565 | 1554
x1 = 0.0995 | 1563 | 1552 | – | 1529
x1 = 0.1488 | 1545 | 1534 | 1522 | 1511
x1 = 0.2006 | – | – | 1508 | 1497
x1 = 0.3001 | 1513 | 1501 | – | 1478
x1 = 0.3821 | – | 1491 | 1479 | 1468
x1 = 0.4985 | 1494 | 1482 | 1470 | 1458
x1 = 0.595 | – | 1476 | 1464 | –
x1 = 0.6976 | 1484 | – | – | 1448
x1 = 0.7792 | 1482 | – | – | 1445
x1 = 0.8902 | 1480 | 1467 | 1454 | 1442
x1 = 1 | 1478 | 1464 | – | 1439
